Assays:
[1] = biological target: T1, human sphingosine-1-phosphate receptor 1 (S1P1) (Homo sapiens, UniProt P21453); assay: Inhibition of cAMP production (HTRF cAMP HiRange), S1P1 CHO-K1 cells; type: cell-based; conditions: for Emax: CHO-K1, efficacy normalized to maximum efficacy of fingolimod, read-out: hS1P1 CAMP SPAN; for EC50: read-out: hS1P1 CAMP pEC50 (converted)
Procedure, shortened: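 CHO-K1 cells co-expressing human S1P1 (C-terminal ProLink tag) and EA-β-arrestin2, plated overnight; after 30 min compound incubation at 37 °C, intracellular cAMP measured by HTRF TR-FRET following 1 h at room temperature. Values normalized to fingolimod.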
Target sequence in this assay (P21453 whole entry): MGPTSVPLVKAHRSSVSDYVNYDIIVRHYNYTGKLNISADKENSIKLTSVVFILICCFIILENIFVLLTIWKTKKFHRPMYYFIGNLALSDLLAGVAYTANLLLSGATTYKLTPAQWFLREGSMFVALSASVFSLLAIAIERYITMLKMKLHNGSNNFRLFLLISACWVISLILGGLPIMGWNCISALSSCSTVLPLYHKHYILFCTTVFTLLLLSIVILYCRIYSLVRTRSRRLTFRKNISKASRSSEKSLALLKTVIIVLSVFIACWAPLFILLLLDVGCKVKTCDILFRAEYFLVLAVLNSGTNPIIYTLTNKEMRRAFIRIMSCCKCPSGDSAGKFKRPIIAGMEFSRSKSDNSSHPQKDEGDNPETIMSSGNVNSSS

[2] = biological target: T1, human sphingosine-1-phosphate receptor 1 (S1P1); assay: β-Arrestin2 recruitment assay (PathHunter), S1P1 CHO-K1 cells; type: cell-based; conditions: for Emax: efficacy normalized to maximum efficacy of fingolimod, read-out: hS1P1 B-arrestin2 SPAN; for EC50: β-arrestin2 recruitment, read-out: hS1P1 B-arrestin2 pEC50 (converted)
Procedure, shortened: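 CHO-K1 cells co-expressing EA-β-arrestin2 and ProLink-tagged human S1P1 plated overnight, then stimulated 60 min at 37 °C. Enzyme-fragment complementation (β-galactosidase) detected after 1 h at room temperature by luminescence; values normalized to fingolimod.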
Target sequence in this assay (P21453 whole entry): as above
Target sequence in this assay (P32121 whole entry partner): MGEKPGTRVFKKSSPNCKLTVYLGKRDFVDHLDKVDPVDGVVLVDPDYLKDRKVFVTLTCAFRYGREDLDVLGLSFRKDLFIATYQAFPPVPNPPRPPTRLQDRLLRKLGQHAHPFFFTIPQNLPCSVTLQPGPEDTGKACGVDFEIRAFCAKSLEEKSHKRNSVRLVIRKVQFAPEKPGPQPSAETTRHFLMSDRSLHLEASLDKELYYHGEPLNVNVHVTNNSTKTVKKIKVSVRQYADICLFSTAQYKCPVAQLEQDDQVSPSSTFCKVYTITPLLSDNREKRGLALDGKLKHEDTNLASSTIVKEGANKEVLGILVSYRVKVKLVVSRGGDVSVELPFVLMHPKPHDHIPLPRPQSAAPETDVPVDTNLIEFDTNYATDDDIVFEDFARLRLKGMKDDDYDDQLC

[3] = inhibition of cAMP production, potency
[4] = CHO-K1, β-arrestin2 recruitment
[5] = inhibition of cAMP production, S1P1

Compound | Emax ([1]; inhibition of cAMP production) [%] | EC50 [1, 3] [µM] | Emax [2, 4] [%] | EC50 ([2]; potency) [µM] | Emax [1] [%] | EC50 [1, 5] [µM] | Emax ([2]; CHO-K1) [%] | EC50 ([2]; S1P1) [µM]
Cc1ccccc1-c1noc(-c2ccc3c(c2)CCC(=O)N3C)n1 [Compound 367, 1-methyl-6-[3-(2-methyl-phenyl)-1,2,4-oxadiazol-5-yl]-1,2,3,4-tetrahydroquinolin-2-one] | < 75 | > 0.316 | < 75 | > 10 | – | – | – | –
COc1ccccc1-c1noc(-c2ccc3[nH]ccc3c2)n1 [Compound 368, 5-(1H-indol-5-yl)-3-(2-methoxyphenyl)-1,2,4-oxadiazole] | < 75 | > 0.316 | < 75 | > 10 | – | – | – | –
COc1ccccc1-c1noc(-c2ccc3[nH]cnc3c2)n1 [Compound 369, 5-(1H-benzo[d]imidazol-5-yl)-3-(2-methoxy-phenyl)-1,2,4-oxadiazole] | < 75 | > 0.316 | < 75 | > 10 | – | – | – | –
COc1ccccc1-c1noc(-c2ccc3c(cnn3C(C)C)c2)n1 [Compound 370, 5-(1-isopropyl-1H-indazol-5-yl)-3-(2-methoxyphenyl)-1,2,4-oxadiazole] | > 75 | < 0.316 | > 75 | < 10 | – | – | – | –
COc1ccccc1-c1noc(-c2ccc3[nH]ncc3c2)n1 [Compound 371, 5-(1H-indazol-5-yl)-3-(2-methoxyphenyl)-1,2,4-oxadiazole] | < 75 | > 0.316 | < 75 | > 10 | – | – | – | –
COc1ccccc1-c1noc(-c2ccc3c(ccn3C(C)C)c2)n1 [Compound 372, 5-(1-isopropyl-1H-indol-5-yl)-3-(2-methoxy-phenyl)-1,2,4-oxadiazole] | – | – | – | – | > 75 | < 0.316 | > 75 | < 10

Other lines, results leading:

Emax ([1]; inhibition of cAMP production) [%] | EC50 [1, 3] [µM] | Emax [2, 4] [%] | EC50 ([2]; potency) [µM] | Emax [1] [%] | EC50 [1, 5] [µM] | Emax ([2]; CHO-K1) [%] | EC50 ([2]; S1P1) [µM] | Compound
– | – | – | – | > 75 | > 0.316 | > 75 | > 10 | COc1ccccc1-c1noc(-c2ccc3c(c2)ncn3C(C)C)n1 [Compound 373, 5-(1-isopropyl-1H-benzo[d]imidazol-5-yl)-3-(2-methoxy-phenyl)-1,2,4-oxadiazole]
– | – | – | – | < 75 | > 0.316 | < 75 | > 10 | CC(C)n1ccc2cc(-c3nc(-c4ccccc4F)ns3)ccc21 [Compound 374, 5-[3-(2-fluorophenyl)-1,2,4-thiadiazol-5-yl]-1-(propan-2-yl)-1H-indole]
– | – | – | – | > 75 | < 0.316 | < 75 | < 10 | COc1ccccc1-c1nc(-c2ccc3c(ccn3C(C)C)c2)ns1 [Compound 375, 5-[5-(2-methoxy-phenyl)-1,2,4-thiadiazol-3-yl]-1-(propan-2-yl)-1H-indole]
– | – | – | – | < 75 | > 0.316 | < 75 | > 10 | Cc1ccncc1-c1noc(-c2ccc3ccsc3n2)n1 [Compound 376, 4-methyl-3-(5-{thieno[2,3-b]pyridin-6-yl}-1,2,4-oxadiazol-3-yl)pyridine]
– | – | – | – | < 75 | > 0.316 | < 75 | > 10 | CN1C(=O)Cc2cc(-c3nc(-c4cccnc4)no3)ccc21 [Compound 377, 1-methyl-5-[3-(pyridin-3-yl)-1,2,4-oxadiazol-5-yl]-2,3-dihydro-1H-indol-2-one]
– | – | – | – | < 75 | > 0.316 | < 75 | > 10 | CC(C)n1ccc2cc(-c3nsc(-c4ccccc4F)n3)ccc21 [Compound 380, 5-[5-(2-fluorophenyl)-1,2,4-thiadiazol-3-yl]-1-(propan-2-yl)-1H-indole]
– | – | – | – | < 75 | > 0.316 | < 75 | < 10 | Cc1ccccc1-c1nsc(-c2ccc3c(ccn3C(C)C)c2)n1 [Compound 381, 5-[3-(2-methylphenyl)-1,2,4-thiadiazol-5-yl]-1-(propan-2-yl)-1H-indole]
– | – | – | – | > 75 | < 0.316 | > 75 | < 10 | Cc1ccccc1-c1noc(-c2cnc3c(c2)nnn3C(C)C)n1 [Compound 382, 3-(2-methylphenyl)-5-[3-(propan-2-yl)-3H-[1,2,3]triazolo[4,5-b]pyridin-6-yl]-1,2,4-oxadiazole]

From patent US20230114241A1, “METHODS OF TREATING EPILEPSY USING THE SAME” (Trevena, Inc., priority 2019, published 2023)
